Laboratory results: patent publication US9346761B2, “Arginine methyltransferase inhibitors and uses thereof” (Epizyme, Inc., priority 2013, dated 2016)
Where a name gives a salt, the structure may show the parent alone. Read-outs that look alike come from different tables or passages of the source.

Key:
[1] = test system: mono-methyl arginine in RKO cells; test: RKO methylation assay, In Cell Western for mono-methyl arginine and DNA content; type: cell-based; conditions: Homo sapiens
[2] = molecular target: T1, Full-length human PRMT8 (Homo sapiens, UniProt Q9NR22); test: PRMT8 biochemical assay (3H-SAM Flashplate, peptide substrate)
T1 construct: Full-length human PRMT8 (NM_019854.4) isoform 1 transcript clone; made in house
T1 sequence (Q9NR22 whole entry, canonical isoform): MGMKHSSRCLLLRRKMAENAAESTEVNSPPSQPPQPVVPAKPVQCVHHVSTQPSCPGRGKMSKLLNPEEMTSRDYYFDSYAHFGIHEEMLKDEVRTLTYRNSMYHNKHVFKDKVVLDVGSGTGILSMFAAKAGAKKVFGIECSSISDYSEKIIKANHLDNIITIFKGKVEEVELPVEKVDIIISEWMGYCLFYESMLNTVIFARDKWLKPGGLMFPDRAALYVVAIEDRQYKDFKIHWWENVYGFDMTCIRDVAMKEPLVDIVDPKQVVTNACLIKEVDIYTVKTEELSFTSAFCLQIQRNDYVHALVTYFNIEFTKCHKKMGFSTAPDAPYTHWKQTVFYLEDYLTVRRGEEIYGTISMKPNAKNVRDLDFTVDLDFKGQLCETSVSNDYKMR
Text: General Materials. S-adenosylmethionine (SAM), S-adenosylhomocysteine (SAH), bicine, Tween20, dimethylsulfoxide (DMSO), bovine skin gelatin (BSG), isopropyl-β-D-thiogalactopyranoside (IPTG), and Tris(2-carboxyethyl)phosphine hydrochloride solution (TCEP) were purchased from Sigma-Aldrich at the highest level of purity possible. ^3H-SAM was purchase from American Radiolabeled Chemicals with a specific activity of 80 Ci/mmol. 384-well streptavidin Flashplates were purchased from PerkinElmer.
Substrates. Peptide representative of human histone H4 residues 31-45 was synthesized with an N-terminal linker-affinity tag motif and a C-terminal amide cap by 21st Century Biochemicals.
Protein Expression. E. coli (BL21(DE3) Gold, Stratagene) made competent by the CaCl2 method were transformed with the PRMT8 construct and ampicillin selection. Protein over-expression was accomplished by growing the PRMT8 expressing E. coli clone and inducing expression with 0.3 mM IPTG at 16° C. The culture was grown for 12 hours, harvested by centrifugation, and stored at −80° C. for purification.
Protein Purification. […] GST-tagged PRMT8 was eluted with 50 mM Tris, 2 mM glutathione, pH 7.8. Pooled fractions were cleaved by thrombin (10 U) and dialysed in buffer A. GST was removed by reloading the cleaved protein sample onto glutathione sepharose column and PRMT8 was collected in the flow-through fractions. PRMT8 was purified further by ceramic hydroxyapatite chromatography. The column was washed with 50 mM phosphate buffer, 100 mM NaCl, 5% glycerol, 5 mM β-mercaptoethanol, pH 7.8 and PRMT8 was eluted by 100 mM phosphate in the same buffer. Protein was concentrated and buffer was exchanged to 50 mM Tris, 300 mM NaCl, 10% glycerol, 5 mM β-mercaptoethanol, pH 7.8 by ultrafiltration.
General Procedure for PRMT8 Enzyme Assays on Peptide Substrates. The assays were all performed in a buffer consisting of 20 mM Bicine (pH=7.6), 1 mM TCEP, 0.005% BSG, and 0.002% Tween 20, prepared on the day of use. […] DMSO (1 ul) was added to Columns 11, 12, 23, 24, rows A-H for the maximum signal control and 1 ul of SAH, a known product and inhibitor of PRMT8, was added to columns 11, 12, 23, 24, rows I-P for the minimum signal control. A cocktail (40 ul) containing the PRMT8 enzyme was added by Multidrop Combi (Thermo-Fisher). The compounds were allowed to incubate with PRMT8 for 30 min at room temperature, then a cocktail (10 ul) containing ^3H-SAM and peptide was added to initiate the reaction (final volume=51 ul). […] The assays were stopped by the addition of non-radiolabeled SAM (10 ul) to a final concentration of 400 uM, which dilutes the ^3H-SAM to a level where its incorporation into the peptide substrate is no longer detectable. 50 ul of the reaction in the 384-well polypropylene plate was then transferred to a 384-well Flashplate and the biotinylated peptides were allowed to bind to the streptavidin surface for at least 1 hour before being washed once with 0.1% Tween20 in a Biotek ELx405 plate washer. The plates were then read in a PerkinElmer TopCount plate reader to measure the quantity of ^3H-labeled peptide bound to the Flashplate surface, measured as disintegrations per minute (dpm) or alternatively, referred to as counts per minute (cpm).
Where dpm=disintegrations per minute, cmpd=signal in assay well, and min and max are the respective minimum and maximum signal controls.
Where top and bottom are the normally allowed to float, but may be fixed at 100 or 0 respectively in a 3-parameter fit. The Hill Coefficient normally allowed to float but may also be fixed at 1 in a 3-parameter fit. Y is the % inhibition and X is the compound concentration.

[3] = In Cell Western, RKO cells, 72 hours, percent activation of mono-methyl arginine signal, read-out: EC30

Compound | EC30 [1, 3] [µM] | IC50 [2] [µM] | EC30 ([1]; RKO, 72 h) [µM]
CNCCN(C)Cc1cn(C2CC2)nc1-c1ccc(F)cc1 [Compound 13] | > 12 | > 10 | –
CNCCN(C)Cc1cnn(C2CC2)c1-c1ccc(F)cc1 [Compound 14] | 3.01 to 12 | 1.01 to 3 | –
CNCCN(C)Cc1cn(C(C)C)nc1-c1ccc(F)cc1 [Compound 15] | > 12 | > 10 | –
CNCCN(C)Cc1cnn(C(C)C)c1-c1ccc(F)cc1 [Compound 16] | – | > 10 | > 12
CNCCN(C)Cc1cn[nH]c1-c1ccc(C#N)cc1 [Compound 17] | – | < 0.1 | > 12
CNCCN(C)Cc1cn[nH]c1-c1cc(F)cc(F)c1 [Compound 18] | > 12 | 0.101 to 1 | –
CCCc1ccc(-c2n[nH]cc2CN(C)CCNC)cc1 [Compound 20] | < 3 | < 0.1 | –
CNCCN(C)Cc1c[nH]nc1-c1cccc([N+](=O)[O-])c1 [Compound 21] | > 12 | 0.101 to 1 | –
CNCCN(C)Cc1c[nH]nc1-c1cccc(C#N)c1 [Compound 22] | > 12 | 1.01 to 3 | –
CNCCN(C)Cc1c[nH]nc1-c1ccccc1OC [Compound 23] | > 12 | 3.01 to 10 | –
CNCCN(C)Cc1c[nH]nc1-c1cccc(OC)c1 [Compound 24] | > 12 | 0.101 to 1 | –
CNCCN(C)Cc1c[nH]nc1-c1ccc(OC)cc1 [Compound 25] | > 12 | 0.101 to 1 | –
CNCCN(C)Cc1c[nH]nc1-c1cccc(O)c1 [Compound 26] | > 12 | 1.01 to 3 | –
CNCCN(C)Cc1c[nH]nc1-c1ccc(O)cc1 [Compound 27] | > 12 | 0.101 to 1 | –
CNCCN(C)Cc1c[nH]nc1-c1ccc(CO)cc1 [Compound 28] | 3.01 to 12 | < 0.1 | –
CNCCN(C)Cc1c[nH]nc1-c1ccc(C)cc1C [Compound 29] | > 12 | 1.01 to 3 | –
CNCCN(C)Cc1cn(CCCC(O)CO)nc1-c1ccc(F)cc1 (centres unmarked) [Compound 30] | > 12 | > 10 | –
CNCCN(C)Cc1cnn(CCCC(O)CO)c1-c1ccc(F)cc1 (centres unmarked) [Compound 31] | > 12 | 3.01 to 10 | –
CNCCN(C)Cc1c[nH]nc1-c1ccc(N)cc1 [Compound 33] | > 12 | 1.01 to 3 | –
CNCCN(C)Cc1c[nH]nc1-c1ccc(Oc2ccccc2)cc1 [Compound 37] | < 3 | < 0.1 | –

Compound | EC30 [1, 3] [µM] | IC50 [2] [µM] | EC30 ([1]; RKO, 72 h) [µM]
CNCCN(C)Cc1c[nH]nc1-c1ccccc1C(F)(F)F [Compound 38] | > 12 | 3.01 to 10 | –
CNCCN(C)Cc1c[nH]nc1-c1ccccc1OC(F)(F)F [Compound 40] | > 12 | 3.01 to 10 | –
CCNC(=O)c1cccc(-c2n[nH]cc2CN(C)CCNC)c1 [Compound 43] | > 12 | 1.01 to 3 | –
CNCCN(C)Cc1c[nH]nc1-c1ccc(C(F)(F)F)cc1 [Compound 174] | < 3 | 0.101 to 1 | –
CC(C)CC(=O)N1CCN(c2ccc(-c3n[nH]cc3CN(C)CCN)cc2)CC1 [Compound 180] | > 12 | 3.01 to 10 | –
CNCCN(C)Cc1c[nH]nc1-c1ccc(Cl)c(F)c1 [Compound 182] | < 3 | 0.101 to 1 | –
CN(CCNC1CC1)Cc1c[nH]nc1-c1ccc(C#N)cc1 [Compound 183] | > 12 | 3.01 to 10 | –
CN(CCN(C)C1CC1)Cc1c[nH]nc1-c1ccc(C#N)cc1 [Compound 184] | < 3 | 3.01 to 10 | –
CN(CCN1CCC1)Cc1c[nH]nc1-c1ccc(C#N)cc1 [Compound 185] | > 12 | 3.01 to 10 | –
CC(C)Oc1cccc(-c2n[nH]cc2CN(C)CCN)c1 [Compound 187] | 3.01 to 12 | 1.01 to 3 | –
CC(C)Oc1cc(-c2n[nH]cc2CN(C)CCN)ccc1F [Compound 188] | > 12 | 1.01 to 3 | –
CCC(=O)N1CCN(c2ccc(-c3n[nH]cc3CN(C)CCN)cc2)CC1 [Compound 189] | > 12 | 1.01 to 3 | –
CC(C)CN1C(=O)COc2ccc(-c3n[nH]cc3CN(C)CCN)cc21 [Compound 191] | > 12 | 3.01 to 10 | –
CN(CCN)Cc1c[nH]nc1-c1ccc2c(c1)OCC(=O)N2C [Compound 192] | > 12 | 1.01 to 3 | –
CC(C)CN1C(=O)COc2cc(-c3n[nH]cc3CN(C)CCN)ccc21 [Compound 193] | 3.01 to 12 | 0.101 to 1 | –
CN(CCN)Cc1c[nH]nc1-c1ccc(OCCO)cc1 [Compound 194] | > 12 | 0.101 to 1 | –
CN(CCN)Cc1c[nH]nc1-c1ccc(OCCCO)cc1 [Compound 195] | 3.01 to 12 | 0.101 to 1 | –
CN(CCN)Cc1c[nH]nc1-c1ccc2c(c1)N(C)C(=O)CO2 [Compound 196] | > 12 | 1.01 to 3 | –
CCNC(=O)c1cccc(-c2n[nH]cc2CN(C)CCN)c1 [Compound 197] | > 12 | 1.01 to 3 | –
CCN(C)C(=O)c1cccc(-c2n[nH]cc2CN(C)CCN)c1 [Compound 198] | > 12 | > 10 | –

Compound | EC30 [1, 3] [µM] | IC50 [2] [µM] | EC30 ([1]; RKO, 72 h) [µM]
CCn1cc(CN(C)CCNC)c(-c2ccc(OC(C)C)cc2)n1 [Compound 213] | > 12 | – | –
CNCCN(C)Cc1cn(C2CCCC2)nc1-c1ccc(OC(C)C)cc1 [Compound 214] | > 12 | – | –
CNCCN(C)Cc1cn(C2CCOC2)nc1-c1ccc(OC(C)C)cc1 (centres unmarked) [Compound 215] | > 12 | – | –
CNCCN(C)Cc1cnn(C2CCOC2)c1-c1ccc(OC(C)C)cc1 (centres unmarked) [Compound 216] | > 12 | – | –
CNCCN(C)Cc1cn(Cc2ccccc2)nc1-c1ccc(OC(C)C)cc1 [Compound 217] | > 12 | – | –
C=CCn1cc(CN(C)CCNC)c(-c2ccc(OC(C)C)cc2)n1 [Compound 218] | > 12 | – | –
C=CCn1ncc(CN(C)CCNC)c1-c1ccc(OC(C)C)cc1 [Compound 219] | > 12 | – | –
CNCCN(C)Cc1cn(C)nc1-c1ccc(OC(C)C)cc1 [Compound 243, N1-((3-(4-isopropoxyphenyl)-1-methyl-1H-pyrazol-4-yl)methyl)-N1,N2-dimethylethane-1,2-diamine] | < 3 | – | –
CNCCN(C)Cc1cn(Cc2cccnc2)nc1-c1ccc(OC(C)C)cc1 [Compound 246] | – | – | < 3
CNCCN(C)Cc1cn(Cc2ccccn2)nc1-c1ccc(OC(C)C)cc1 [Compound 247] | 3.01 to 12 | – | –
CNCCN(C)Cc1cn(CC(=O)OC)nc1-c1ccc(OC(C)C)cc1 [Compound 248] | > 12 | – | –
CNCCN(C)Cc1cn(CC(N)=O)nc1-c1ccc(OC(C)C)cc1 [Compound 251] | > 12 | – | –
CCn1ncc(CN(C)CCNC)c1-c1ccc(OC(C)C)cc1 [Compound 252] | – | – | < 3
CNCCN(C)Cc1cn(CCOC)nc1-c1ccc(OC(C)C)cc1 [Compound 253, N1-((3-(4-isopropoxyphenyl)-1-(2-methoxyethyl)-1H-pyrazol-4-yl)methyl)-N1,N2-dimethylethane-1,2-diamine hydrochloride] | 3.01 to 12 | – | –
CNCCN(C)Cc1cn(C2CCC2)nc1-c1ccc(OC(C)C)cc1 [Compound 254, N1-((1-cyclobutyl-3-(4-isopropoxyphenyl)-1H-pyrazol-4-yl)methyl)-N1,N2-dimethylethane-1,2-diamine hydrochloride] | < 3 | – | –
CNCCN(C)Cc1cnn(C2CCCC2)c1-c1ccc(OC(C)C)cc1 [Compound 255] | – | – | < 3
C=C(C)C(=O)Nc1cccc(-c2[nH]ncc2CN(C)CCNC)c1 [Compound 257] | > 12 | – | –
C=CC(=O)Nc1cccc(-c2[nH]ncc2CN(C)CCNC)c1 [Compound 258] | > 12 | – | –
